Data published in patent US9085791B2, “Method for screening substance relating to endoplasmic reticulum stress participating in onset of diabetes” (THE UNIVERSITY OF TOKUSHIMA, priority 2011, dated 2015).

What was measured:
Type in all cases: cell-based
HEK293 cells = test: Hoechst33258 staining for cell death of stimulated HEK293 cells; details: etoposide 100 uM, thapsigargin 0.2 uM, DTT 1 mM, after 36 hours
MIN6 cells = test: Insulin secretion in pancreatic β-cell MIN6 cells (ELISA); details: thapsigargin 0.2 uM or DTT 1 M for 30 minutes, culture 36 hours, then KREBS buffer with 3 mM or 20 mM glucose for 1 hour
Description: A control solution (DMSO), a thapsigargin solution (thapsigargin/DMSO solution), or a DTT solution (DTT/DMSO solution) was added to a culture solution (DMEM containing 10% fetal bovine serum) in which pancreatic p-cell MIN6 cells are cultured, and the culture solution was replaced with a general culture solution (DMEM containing 10% fetal bovine serum) after 30 minutes. Then, the culture was continued for 36 hours. The thapsigargin solution was added so that the thapsigargin concentration in the culture solution became 0.2 uM, and the DTT solution was added so that the DTT concentration in the culture solution became […]. Thereafter, the culture solution was replaced with a KREBS buffer solution containing 3 mM or 20 mM glucose, and the culture was continued for 1 hours. The concentration of insulin secreted in the culture solution was measured according to the ELISA method.

ATF6 activation [1] = test: ATF6 activity reporter system (EGFPS-ATF6d and EGFPL expression vectors) in HEK293 cells, green fluorescence
Description: An EGFPS-ATF6d expression vector and an EGFPL expression vector were produced using a green fluorescent protein GFP as a reporter protein. An ATF6 activity reporter system having the two vectors was introduced into the following cell strains.
The EGFPS-ATF6d expression vector and the EGFPL expression vector were introduced into HEK293 cells using a polyethylene imine method at an efficiency of not less than 90%. Through an electroporation method using NEON (electroporation device) (Invitrogen), the EGFPS-ATF6d expression vector and the EGFPL expression vector were introduced into MIN6 cells, HepG2 cells, 3T3-L1 cells, and L6 cells at an efficiency of not less than 80%, 60%, 90%, and 70%, respectively.
In order to confirm that the ATF6 activity reporter system functions in an endoplasmic reticulum stress-dependent manner, the EGFPS-ATF6d expression vector and the EGFPL expression vector were coexpressed or individually expressed in HEK293 cells.
In the cells in which the EGFPS-ATF6d expression vector and the EGFPL expression vector were coexpressed, green fluorescence was slightly observed. The cells were stimulated with 0.2 ug/ml tunicamycin, which is an endoplasmic reticulum stress inducer, and observed 6 hours after the stimulation.
It is important that ATF6 activity reporter system is capable of detecting ATF6 activation in an endoplasmic reticulum stress-specific manner. Therefore, HEK293 cells in which the EGFPS-ATF6d expression vector and the EGFPL expression vector are coexpressed are stimulated by etoposide, which is a DNA replication inhibitor; thapsigargin, which is an endoplasmic reticulum stress inducer; and DTT, which is an endoplasmic reticulum stress inducer, in an amount of 100 uM, 0.2 uM, and 1 mM, respectively; and the presence of fluorescence was observed.

IRE1 pathway = test: Ire1 activation reporter (XBP1 splicing) in cell strains derived from different organs; details: 0.2 ug/ml tunicamycin, 6 hours
Description: (§1) The endoplasmic reticulum stress response is controlled by the three pathways, namely, Ire1 pathway, PERK pathway, and ATF6 pathway. Apart from the homeostasis of endoplasmic reticulum, they are also individually involved in control of organ-specific metabolism. Detection of the three endoplasmic reticulum stress response pathways is considered important to discover a drug targeting organ-specific endoplasmic reticulum stress response with fewer side effects. […] Med. (2004) 10 98-102, for measuring Ire1 pathway by XBP1 splicing, and a PERK activation reporter expression vector, disclosed in J Cell Biol. (2004) 167 27-33, for measuring PERK pathway by ATF4 translation were produced. An EGFPS-ATF6d expression vector, an EGFPL expression vector, the Ire1 activation reporter expression vector, and the PERK activation reporter expression vector were expressed in pancreatic β-cell strain MIN6 cells, hepatic cell strain HepG2 cells, adipose cell strain 3T3-L1 cells, and skeletal muscle cell strain L6 cells, respectively. The cells were observed 6 hours after the stimulation with 0.2 ug/ml tunicamycin, which is an endoplasmic reticulum stress inducer.

ATF6 pathway = test: ATF6 activity reporter system in cell strains derived from different organs; details: HepG2, MIN6, L6, 3T3-L1 cells; 0.2 ug/ml tunicamycin, 6 hours
Description: as §1

ATF6 activation [2] = test: ATF6 activity reporter system in mouse fibroblasts modified by deleting Ire1α gene or PERK gene; details: 0.2 ug/ml tunicamycin, 6 hours
Description: The endoplasmic reticulum stress response is known to be controlled by three individual pathways. It is important that the ATF6 activity reporter system enables detection of ATF6 activation with no influence of other pathways, such as Ire1 pathway or PERK pathway. In this connection, the EGFPS-ATF6d expression vector and the EGFPL expression vector were coexpressed in mouse fibroblasts modified by deleting Ire1α gene or PERK gene. The cells were observed 6 hours after stimulation with 0.2 ug/ml tunicamycin, which is an endoplasmic reticulum stress inducer.

PERK pathway = test: PERK activation reporter (ATF4 translation) in cell strains derived from different organs; details: HepG2, MIN6, L6, 3T3-L1 cells; 0.2 ug/ml tunicamycin, 6 hours
Description: as §1

[3] = HEK293 cells coexpressing both vectors, etoposide 100 uM, thapsigargin 0.2 uM, DTT 1 mM

O[C@H](CS)[C@H](O)CS (racemic) [DTT, dithiothreitol]
cell death (Hoechst33258 staining) (HEK293 cells): severe enough to cause cell death after 36 hours | insulin secretion (concentration of insulin secreted in the culture solution) (MIN6 cells): insulin secretion was suppressed | green fluorescence (ATF6 activation [1]; [3]): significant green fluorescence was observed

COc1cc([C@@H]2c3cc4c(cc3[C@@H](O[C@@H]3O[C@@H]5CO[C@@H](C)O[C@H]5[C@H](O)[C@H]3O)[C@H]3COC(=O)[C@H]23)OCO4)cc(OC)c1O [etoposide]
cell death (Hoechst33258 staining) (HEK293 cells): severe enough to cause cell death after 36 hours | green fluorescence (ATF6 activation [1]; [3]): no green fluorescence was observed

C/C=C(/C)C(=O)O[C@H]1C(C)=C2[C@H]([C@@H]1OC(=O)CCCCCCC)[C@@](C)(OC(C)=O)C[C@H](OC(=O)CCC)[C@@]1(O)[C@H]2OC(=O)[C@@]1(C)O [thapsigargin]
cell death (Hoechst33258 staining) (HEK293 cells): severe enough to cause cell death after 36 hours | insulin secretion (concentration of insulin secreted in the culture solution) (MIN6 cells): insulin secretion was suppressed | green fluorescence (ATF6 activation [1]; [3]): significant green fluorescence was observed

tunicamycin
activation of IRE1 pathway (fluorescence intensity) (IRE1 pathway; adipose cell strain 3T3-L1 cells): relatively low | activation of IRE1 pathway (fluorescence intensity) (IRE1 pathway; hepatic cell strain HepG2 cells): relatively high | activation of IRE1 pathway (fluorescence intensity) (IRE1 pathway; pancreatic β-cell strain MIN6 cells): relatively high | activation of IRE1 pathway (fluorescence intensity) (IRE1 pathway; skeletal muscle cell strain L6 cells): relatively high | intensity of activation of ATF6 pathway, order among cell strains (ATF6 pathway): highest in hepatic cell strain HepG2 cells, followed by pancreatic β-cell strain MIN6 cells, skeletal muscle cell strain L6 cells, and adipose cell strain 3T3-L1 cells in descending order | green fluorescence (ATF6 activation [2]; fibroblast modified by Ire1α gene deletion): significant green fluorescence was observed | green fluorescence (ATF6 activation [2]; fibroblast modified by PERK gene deletion): significant green fluorescence was observed | green fluorescence (ATF6 activation [1]; 0.2 ug/ml tunicamycin, 6 hours after stimulation, HEK293 cells coexpressing EGFPS-ATF6d and EGFPL expression vectors): significant green fluorescence was observed | green fluorescence (ATF6 activation [1]; 0.2 ug/ml tunicamycin, 6 hours after stimulation, HEK293 cells with EGFPS-ATF6d and EGFPL expression vectors individually expressed): no green fluorescence was observed | degree of the activation of PERK pathway, order among cell strains (PERK pathway): highest in hepatic cell strain HepG2 cells (pancreatic β-cell strain MIN6 cells and skeletal muscle cell strain L6 cells), followed by adipose cell strain 3T3-L1 cells
